Results published in ChEMBL document CHEMBL1133201, “Synthesis and cytotoxic activity of acetogenin analogues” (Bioorg Med Chem Lett, 2000).
pIC50: −log10 of the molar value.

test system: L1210; assay: In vitro inhibitory activity was tested against L1210 leukemia cells; type: functional, cell-based; settings: Mus musculus

Row | SMILES | pIC50
1 | CC(=O)CC1C[C@@H](CCCCCCCC#C[C@@H](O)COCCOC[C@@H](O)c2ccccc2)OC1=O (some centres undefined) | 4.70
2 | CCCCCCCCCC[C@H](O)[C@H]1CC[C@H]([C@H]2CC[C@H]([C@H](O)CCCCCCCCCC[C@@H]3CC(CC(C)=O)C(=O)O3)O2)O1 (some centres undefined) [BULLATACINONE] | 7.80
3 | CCCCCCCCCCCC[C@@H](O)[C@H]1CC[C@H]([C@H](O)CCCC[C@H](O)CCCCC[C@@H](O)CC2=CC(C)OC2=O)O1 (some centres undefined) [ANNONACIN] | 7.38
4 | CCCCN(CCCC)[C@@H](O)COCCOC[C@@H](O)C#CCCCCCCC[C@@H]1CC(CC(C)=O)C(=O)O1 (some centres undefined) | 5.60
5 | CC(=O)CC1C[C@@H](CCCCCCCC#C[C@@H](O)COCCOC[C@@H](O)N2CCCCC2)OC1=O (some centres undefined) | 4.54
6 | CCCCCCCCCC[C@@H](O)[C@@H]1CC[C@@H]([C@@H]2CC[C@@H]([C@H](O)CCCCCCCCCC(O)CC3=CC(C)OC3=O)O2)O1 (some centres undefined) [BULLATACIN] | 9.40

The remaining lines, values ahead:

Row | pIC50 | SMILES
7 | 4.49 | COc1ccc([C@@H](O)COCCOC[C@@H](O)C#CCCCCCCC[C@@H]2CC(CC(C)=O)C(=O)O2)cc1 (some centres undefined)
8 | 4.67 | CC(=O)CC1C[C@@H](CCCCCCCC#C[C@H](O)COCCOC[C@H](O)c2ccccc2)OC1=O (some centres undefined)
9 | 5.46 | CCCCCCCCCC[C@H](O)COCCOC[C@H](O)C#CCCCCCCC[C@@H]1CC(CC(C)=O)C(=O)O1 (some centres undefined)
10 | 5.52 | CC(=O)CC1C[C@@H](CCCCCCCC#C[C@H](O)COCCOC[C@H](O)c2ccc3ccccc3c2)OC1=O (some centres undefined)
11 | 5.48 | CC(=O)CC1C[C@@H](CCCCCCCC#C[C@@H](O)COCCOC[C@@H](O)c2ccc(C(F)(F)F)cc2)OC1=O (some centres undefined)
12 | < 5.00 | COc1ccc([C@H](O)COCCOC[C@H](O)C#CCCCCCCC[C@@H]2CC(CC(C)=O)C(=O)O2)cc1 (some centres undefined)
13 | 5.55 | CC(=O)CC1C[C@@H](CCCCCCCC#C[C@@H](O)COCCOC[C@@H](O)OC2CC[C@]3(C)C(=CC[C@@H]4[C@H]5CC[C@@H]([C@@H](C)CCCC(C)C)[C@]5(C)CC[C@H]43)C2)OC1=O (some centres undefined)
14 | 6.00 | CCCCCCCCCC[C@@H](O)COCCOC[C@@H](O)C#CCCCCCCC[C@@H]1CC(CC(C)=O)C(=O)O1 (some centres undefined)
